Measured values: patent US10940139B2, “Compounds that interact with the Ras superfamily for the treatment of cancers, inflammatory diseases, rasopathies, and fibrotic disease” (Shy Therapeutics LLC, priority 2017, dated 2021)

Tests used:
Test in all cases: Ras GTP binding domain inhibition assay (labeled GTP)
KRas G12C mutant = KRas G12C mutant (Homo sapiens (Human), UniProt P01116, G12C); details: 20 μM compound; KRas G12C; read-out: % Inhibition at 20 μM of K-Ras mutant and wild-type protein, KRas G12C
KRas G12C mutant, sequence (P01116-2 other isoform, or with tags, fused parts or gaps G12C): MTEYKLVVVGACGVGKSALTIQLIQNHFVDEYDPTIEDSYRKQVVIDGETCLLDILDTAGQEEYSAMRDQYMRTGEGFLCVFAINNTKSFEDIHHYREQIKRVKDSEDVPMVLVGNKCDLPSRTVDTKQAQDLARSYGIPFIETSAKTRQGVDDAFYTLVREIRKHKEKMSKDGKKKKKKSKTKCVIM
Procedure, shortened: (§1)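 His-tagged KRas protein (3-10 μg/ml) was captured overnight at 4° C on nickel-coated wells in 50 mM Tris pH 7.5, 1 mM MgCl2, 1 mM DTT. Bound labeled GTP was read by fluorescence after washing.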

KRas wild type = KRas wild type (Homo sapiens (Human), UniProt P01116); details: 20 μM compound; KRas wild type; read-out: % Inhibition at 20 μM of K-Ras mutant and wild-type protein, KRas wild type
KRas wild type, sequence (P01116-2 other isoform, or with tags, fused parts or gaps): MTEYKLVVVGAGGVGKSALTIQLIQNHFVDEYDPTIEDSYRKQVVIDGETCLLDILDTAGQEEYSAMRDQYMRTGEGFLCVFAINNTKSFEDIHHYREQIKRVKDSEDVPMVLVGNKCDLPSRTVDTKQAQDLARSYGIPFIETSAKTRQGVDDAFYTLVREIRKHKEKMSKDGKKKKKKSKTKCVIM
Procedure, shortened: as §1

KRas G12D mutant protein = KRas G12D mutant protein (Homo sapiens (Human), UniProt P01116, G12D); details: 20 μM compound; KRas G12D; read-out: % Inhibition at 20 μM of K-Ras mutant and wild-type protein, KRas G12D
KRas G12D mutant protein, sequence (P01116-2 other isoform, or with tags, fused parts or gaps G12D): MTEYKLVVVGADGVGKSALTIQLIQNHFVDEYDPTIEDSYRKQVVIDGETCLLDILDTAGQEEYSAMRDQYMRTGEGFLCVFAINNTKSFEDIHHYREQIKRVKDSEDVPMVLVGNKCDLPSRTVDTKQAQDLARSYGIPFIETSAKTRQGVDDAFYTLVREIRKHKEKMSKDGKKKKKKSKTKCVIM

SMILES	inhibition at 20 µM (KRas G12C mutant)	inhibition at 20 µM (KRas wild type)	inhibition at 20 µM (KRas G12D mutant protein)
Cc1ccccc1-c1c(C)sc2c(O)nc(-c3nccn3C)nc12	1 to 25%	25 to 50%	25 to 50%
COc1nc(-c2ccccn2)nc(Oc2cccc(C(F)(F)F)c2)c1O [drawing 3565]	25 to 50%	1 to 25%	51 to 75%
COCCN(C)c1nc(-c2nccn2C)nc2sc(-c3ccccc3)c(-c3ccccc3)c12 [drawing 3566]	25 to 50%	51 to 75%	51 to 75%
CC(C)OCCNc1nc(-c2nccn2C)nc2sc(-c3ccccc3)c(-c3ccccc3)c12 [drawing 3567]	51 to 75%	51 to 75%	51 to 75%
Cn1ccnc1-c1nc(NCCOC(F)(F)F)c2c(-c3ccccc3)c(-c3ccccc3)sc2n1 [drawing 3568]	1 to 25%	25 to 50%	25 to 50%
CC(O)CNc1nc(-c2nccn2C)nc2sc(-c3ccccc3)c(-c3ccccc3)c12 (stereo not drawn) [drawing 3569]	1 to 25%	1 to 25%	1 to 25%
COCCCNc1nc(-c2nccn2C)nc2sc(-c3ccccc3)c(-c3ccccc3)c12 [drawing 3570]	51 to 75%	51 to 75%	51 to 75%
COC1CCN(c2nc(-c3nccn3C)nc3sc(-c4ccccc4)c(-c4ccccc4)c23)C1 (stereo not drawn) [drawing 3571]	1 to 25%	25 to 50%	51 to 75%
CCOCCOc1nc(-c2nccn2C)nc2sc(-c3ccccc3)c(-c3ccccc3)c12 [drawing 3572]	0%	25 to 50%	1 to 25%
CCN(CC)CCOc1nc(-c2nccn2C)nc2sc(-c3ccccc3)c(-c3ccccc3)c12 [drawing 3573]	25 to 50%	51 to 75%	25 to 50%
COCCNc1nc(-c2ccncn2)nc2sc(-c3ccccc3)c(-c3ccccc3)c12 [drawing 3574]	1 to 25%	1 to 25%	0%
CCOCCNc1nc(-c2nccn2C)nc2sc(-c3ccccc3)c(-c3ccccc3)c12 [drawing 3575]	51 to 75%	51 to 75%	51 to 75%
Cn1ccnc1-c1nc(NCCOC2CC2)c2c(-c3ccccc3)c(-c3ccccc3)sc2n1 [drawing 3576]	25 to 50%	25 to 50%	1 to 25%
COCC(C)Nc1nc(-c2nccn2C)nc2sc(-c3ccccc3)c(-c3ccccc3)c12 (stereo not drawn) [drawing 3577]	1 to 25%	1 to 25%	1 to 25%
CC(CO)Nc1nc(-c2nccn2C)nc2sc(-c3ccccc3)c(-c3ccccc3)c12 (stereo not drawn) [drawing 3578]	25 to 50%	0%	1 to 25%
Cn1ccnc1-c1nc(NCCCO)c2c(-c3ccccc3)c(-c3ccccc3)sc2n1 [drawing 3579]	25 to 50%	25 to 50%	51 to 75%
COCCNc1nc(-c2nccn2C)nc2sc(-c3ccccc3)c(-c3ccccc3Cl)c12 [drawing 3580]	25 to 50%	1 to 25%	25 to 50%
COCCNc1nc(-c2nccn2C)nc2sc(-c3ccccc3Cl)c(-c3ccccc3)c12 [drawing 3581]	1 to 25%	1 to 25%	1 to 25%
COCCNc1nc(-c2nccn2C)nc2sc(-c3ccncc3)c(-c3ccccc3)c12 [drawing 3582]	51 to 75%	76 to 100%	51 to 75%
COCCNc1nc(-c2cn(C)cn2)nc2sc(-c3ccccc3)c(-c3ccccc3)c12 [drawing 3583]	25 to 50%	51 to 75%	25 to 50%
COCCNc1nc(-c2nccn2C)nc2sc(C)c(-c3ccccc3)c12 [drawing 3584]	51 to 75%	51 to 75%	51 to 75%
COCCNc1nc(-c2cn(C)cn2)nc2sc(C)c(-c3ccccc3)c12 [drawing 3585]	25 to 50%	51 to 75%	25 to 50%
COCCNc1nc(-c2nccn2C)nc2sc(-c3cccc(OC)c3)c(-c3ccccc3)c12 [drawing 3586]	1 to 25%	25 to 50%	25 to 50%
CC(C)COc1ccc(-c2c(-c3ccccc3)sc3c(O)nc(-c4nccn4C)nc23)cn1 [drawing 3587]	25 to 50%	51 to 75%	51 to 75%
Cn1ccnc1-c1nc(O)c2sc(-c3ccccc3)c(-c3ccccc3)c2n1 [drawing 3588]	0%	1 to 25%	0%
